Reference: patent US7718613B2, “Armed peptides” (priority 2001, dated 2010)
The star is where a group is joined. Myristoyl = CCCCCCCCCCCCCC(=O)*

Columns and labels:
[1] = Liposome-peptide integral complex: pH-triggered calcein release and stability; details: after Sepharose CL-6B column, FIG. 8A
Description: A fatty acid incorporated on the N-terminal of peptide anchors the sequence with liposomes to form integral complex which can then be used as single stable reagent that can be triggered to release the contents-of the liposomoes when the pH is ideal (i.e physiological 7.4) or acidic (e.g 6.2). In the first instance we prepared the liposome-peptide complex at a predetermined ratio of lipid-to peptide (30:1) in pH 8 buffer using peptide 10. […] The complex between liposomes and peptide was formed by adding peptide to […] of 10 mM NaP containing 140 mM NaCl, 1 mM EDTA, 5 mM Hepes pH 8 buffer, containing 100 μl of calcein encapsulating liposomes. The mixture was incubated for 20 mins to form the complex prior to use. In order to ascertain that the lysis is occurring due to the formation of complex and not as the action of the peptide per se it was essential to purify the liposome-peptide complex. The peptide to lipid ratio in this complex is 1:30. The complex was applied to a Sepharose CL-6B column. Fractions corresponding to liposomes were collected as clearly visible to the eye. Aliquots of these fractions were then tested for lytic activity at acidic and physiological pH values. The key aim was to establish that the peptide is liposome associated and would thus be eluted with liposome fraction in the void volume. We used 100 μl complex (a column purified fraction) and followed the release of Calcein at two different pH values.
FIG. 8A. […] Upper curve pH 5.8. Lower curve pH 7.4.
2 ml buffer (10 mM Na phosphate, 140 mM NaCl, 1 mM EDTA, 5 mM HEPES)+50 μl purified complex. Lipsomes used were 50 nm extruded. Curves top to bottom are pH 6.2, 6.4, 6.7, 7.0, 7.4
Complex 20 μl liposomes+60 μl pH 8 buffer+20 μl peptide (0.1 mg/ml) prepared and used within 2 minutes. 10 μl was added to each of the cuvettes containing 2 ml buffers. Top curve pH 6.2 (triton was added towards the end indicated by sharp dip in fluorescence to check full lysis), the lower curve is at pH 7.4. Samples measured simultaneously.
5 μL of complex in 2 ml of buffer tested 20 minutes after preparation. Upper curve pH 6.2, Lower curve pH 7.4.
5 μL of complex in 2 ml of buffer tested 5 hrs after preparation. Upper curve pH 6.2 and lower curve pH 7.4.
5 μL of complex in 2 ml of buffer tested 24 hrs after preparation curve pH 6.2, Lower curve pH 7.4.

[2] = Activation of phosphorylated peptide by alkaline phosphatase, calcein liposome lysis
Method: Alkaline phosphatase (bovine intestinal mucosa) obtained from Sigma was used for dephosphorylation of peptide at the serine phosphate. A 10 μl of Peptide solution (0.01 mg/ml) was added to 2 ml of 10 mM HEPES buffer at pH 6.8 and 10 units of alkaline phosphatase added. After allowing 10-minute incubation for dephosphorylation calcein liposomes (5 μM lipid) were added and fluorescence intensity recorded using wavelengths of 490 nm for excitation and 520 nm for emission. Control experiment was conducted in the absence of alkaline phosphates. […] Thus the enzyme treatment yielded the dephosphorylated peptide resulting in activation of the peptide under mildly acidic conditions 3 μl of 0.1 mg/ml of peptide 12 (table 1) was incubated for 10 minutes with alkaline phosphatase in 20 μl 10 mM Tris-HCL pH 8 buffer. This was then added (see arrow on FIG. 14B) to 2 ml PBS pH 6.6 buffer containing 3 μl of calcein liposomes (3 mg/ml lipid concentration). Fluorescence was recorded as a function of time with excitation and emission wavelengths of 490 nm and 520 nm respectively. A similar experiment was carried out in the absence of alkaline phosphatase.

[3] = Cloaking of peptide activity with pH and DNA binding, calcein liposome lysis
Method: Calcein liposomes containing (5 μM lipid) were added to 2 ml phosphate buffered saline containing the peptide (0.4 μM) and the fluorescence recorded. This was carried out at pH values of 6.6 and 7.4. The fluorescence intensity indicative of leakage after five minutes was expressed as a % of lysis obtained with 10 μl of 10% Triton-X100. the latter taken to represent 100% lysis. The experiment was repeated whereby the peptide was pre-condensed with calf thymus DNA (Sigma) at charge ratio to give minimum lysis at pH 7.4. […] Thus the DNA condensate of the peptide would require both the de-condensation and slightly acidic conditions to cause lysis. Cloaking of peptides with DNA binding and pH has obvious advantages when delivering genes via the endosome route where low pH is encountered. A combination of highly anionic region (towards the N terminal end of peptide 13 table 1 residues LEAALAEALEAL) and highly cationic region (the c terminal end of peptide 13 table 1, residues RRRRQQ,) within the same polypeptide sequence is critical to this fuction.
To assess condensation of DNA to peptide and its effect on cytolytic activity, assays were performed at several different pH values and at different peptide to DNA ratios. […] The peptide or complexes have a property of retaining high basic character on one end which is essential for DNA binding while retaining highly acidic character on the other half of the molecule which is critical for pH switching.

[4] = Detection of VTB epitope and VTB subunit by pH arming liposomal assay

Q: For “Myr-WBALAEALAEALAEHLAKALAEALEALAA-Amide [peptide 10]”, which “Calcein release from purified liposome-peptide complex at pH 5.8” value ([1]; peptide to lipid 1:30, pH 5.8) is on record?
A: acid triggered release

Q: What about the “Calcein release from purified liposome-peptide complex at pH 7.4” value ([1]; peptide to lipid 1:30, pH 7.4) of the same substance?
A: little or no release

Q: For “Myr-WEA ALA EAL AEA S(Phospho)AE HLA RAL AEA LEA LAA-Amide [peptide 12]”, which “dye release in the presence of alkaline phosphatase, pH 6.8” value ([2]; 10 units alkaline phosphatase, 10 mM HEPES pH 6.8, FIG. 14A) is on record?
A: substantial dye release

Q: And the “dye release, enzyme treated peptide, pH 6.6” value ([2]; alkaline phosphatase pre-incubation pH 8, then PBS pH 6.6, FIG. 14B curve 1)?
A: release of the dye

Q: And the “dye release, non-treated peptide, pH 6.6” value ([2]; no alkaline phosphatase, PBS pH 6.6, FIG. 14B curve 2)?
A: no or little rate increase

Q: What about the “dye release in the absence of enzyme, pH 6.8” value ([2]; no alkaline phosphatase, pH 6.8, FIG. 14A) of the same substance?
A: low release

Q: For “Myr-LEAALAEALEALAAGKPALISWIRRRRQQ-Amide (Myristoyl-LEAALAEALEALAAGKPALISWIRRRRQQ-NH2; SMILES CCCCCCCCCCCCCC(=O)N[C@@H](CC(C)C)C(=O)N[C@@H](CCC(=O)O)C(=O)N[C@@H](C)C(=O)N[C@@H](C)C(=O)N[C@@H](CC(C)C)C(=O)N[C@@H](C)C(=O)N[C@@H](CCC(=O)O)C(=O)N[C@@H](C)C(=O)N[C@@H](CC(C)C)C(=O)N[C@@H](CCC(=O)O)C(=O)N[C@@H](C)C(=O)N[C@@H](CC(C)C)C(=O)N[C@@H](C)C(=O)N[C@@H](C)C(=O)NCC(=O)N[C@@H](CCCCN)C(=O)N1CCC[C@H]1C(=O)N[C@@H](C)C(=O)N[C@@H](CC(C)C)C(=O)N[C@H](C(=O)N[C@@H](CO)C(=O)N[C@@H](Cc1c[nH]c2ccccc12)C(=O)N[C@H](C(=O)N[C@@H](CCCNC(=N)N)C(=O)N[C@@H](CCCNC(=N)N)C(=O)N[C@@H](CCCNC(=N)N)C(=O)N[C@@H](CCCNC(=N)N)C(=O)N[C@@H](CCC(N)=O)C(=O)N[C@@H](CCC(N)=O)C(N)=O)[C@@H](C)CC)[C@@H](C)CC) [Peptide 13]”, which “lysis of calcein liposomes when no DNA is present” value ([3]; 0.4 μM peptide, pH 6.6 vs 7.4, five minutes, FIG. 15) is on record?
A: activated by acidic pH

Q: What about the “cytolytic activity with DNA at acidic pH” value ([3]; DNA substantially dissociated) of the same substance?
A: activity is regained

Q: And the “effect of DNA binding on peptide activity” value ([3]; pre-condensed with calf thymus DNA, FIG. 15)?
A: substantial inactivation

Q: And the “cytolytic activity bound to DNA at physiological pH” value ([3]; several peptide to DNA ratios)?
A: inactive

Q: With “Myr-EAALAEALAEALAEGK(ELFTNR)PALISWRRRLQQ-amide [peptide 6]” as the substance, how does the “detection of VTB subunit by release of calcein” value ([4]; VTB subunit competing for anti-epitope antibody, pH 6.8, FIG. 7) read?
A: could also be detected

Q: And the “pH sensitivity of cytolytic activity” value ([4]; analogous to parent Peptide 2)?
A: pH sensitive

Q: What about the “detection of VTB epitope by release of calcein” value ([4]; free epitope (ELFTNR) competing for 6 μg anti-epitope antibody, FIG. 6) of the same substance?
A: could be detected
